Like-named read-outs stand apart in the source and are kept apart here.
Columns and labels:
[1] = Parallel artificial membrane permeability assay (PAMPA); type: in vitro ADME; conditions: pH 7.4, 200 µM in PBS, room temperature; for Papp at 5 h, 200 µM: pH 7.4, PAMPA, read-out: Pe (effective permeability)
Description: The PAMPA was performed using a 96-well precoated Corning Gentest PAMPA plate at a pH of 7.4. The PAMPA plate system consists of a donor plate and an acceptor plate. When both plates are coupled, each well is divided into two chambers that are separated by a lipid–oil–lipid trilayer constructed in a porous filter. Stock solutions (10 mM) of each compound were prepared in DMSO and then further diluted to a concentration of 200 µM in phosphate-buffered saline (PBS) at pH 7.4. The compound dissolved in PBS was then added to the donor plate and pure PBS was added to the acceptor plate. Four replicates of each compound and negative control (PBS) were transferred into different wells of the donor plate. Both plates were coupled and left at room temperature for 5 h. Then, the plates were separated, and the solutions of each donor well and acceptor well were transferred to 96-well UV-Star Microplates (Greiner Bio-One). The UV absorbance of compounds in donor wells and acceptor wells were analyzed by a SpectraMax M3 UV plate reader (Molecular Devices). The concentrations were received from a calibration curve for each substance. The plates were analyzed at a wavelength where the R^2 value of the calibration curve was higher than 0.99 [34]. The effective permeability (Pe) was calculated as shown in the following Equations (1)–(3):(1) Penm/s=10^7∗−ln1−cAt/cequ/S∗1/VD+1/VA∗ t where:
cequ—equilibrium concentration. (2) cequ=cDt ∗VD+cAt ∗VA/VD+VA where:
Recovery of compounds from donor and acceptor wells (mass retention) was calculated as shown in the equation below. Data were only accepted when recovery exceeded 70%.

[2] = tested on: P. falciparum K1; assay: In vitro 3H-hypoxanthine incorporation assay, erythrocytic stages, K1 strain; type: cell-based; conditions: Plasmodium falciparum
Description: (§1) Chloroquine (Sigma C6628) was used as standard. […] Serial drug dilutions of 11 3-fold dilution steps covering a range from 100 to 0.002 μg/mL were prepared. The 96-well plates were incubated in a humidified atmosphere at 37 °C; 4% CO2, 3% O2, 93% N2. […] The plates were incubated for a further 24 h under the same conditions. The plates were then harvested with a Betaplate cell harvester (Wallac, Zurich, Switzerland). The red blood cells were transferred onto a glass fiber filter and washed with distilled water. The dried filters were inserted into a plastic foil with 10 mL of scintillation fluid and counted in a Betaplate liquid scintillation counter (Wallac, Zurich, Switzerland).

[3] = in vitro; conditions: rat
Description: Serial drug dilutions of 11 3-fold dilution steps covering a range from 100 to 0.002 μg/mL were prepared. After 70 h of incubation, the plates were inspected under an inverted microscope to assure the growth of the controls and sterile conditions. […] Then, the plates were read with a Spectramax Gemini XS microplate fluorometer (Molecular Devices Cooperation, Sunnyvale, CA, USA) using an excitation wavelength of 536 nm and an emission wavelength of 588 nm. […] Podophyllotoxin (Sigma P4405) was used as control.

[4] = tested on: P. falciparum NF54; assay: In vitro 3H-hypoxanthine incorporation assay, erythrocytic stages, NF54 strain; type: cell-based, Plasmodium falciparum; conditions: average of four determinations, read-out: P.f. NF54 IC50
Description: as §1

[5] = tested on: P. berghei liver schizonts; set-up: method as in PMID 27275010, PMID 16242190; conditions: P. berghei assay; cited from earlier work
[6] = tested on: Na+-efflux pump PfATP4; set-up: method as in PMID 25145582, PMID 33023071, PMID 19956997, PMID 25715757; conditions: possible target; cited from earlier work
[7] = tested on: early gametocyte stages; set-up: method as in PMID 24060871, PMID 23234555, PMID 26787698, PMID 26749441, PMID 17521751; conditions: cited from earlier work
[8] = tested on: multiresistant strain K1 of Plasmodium falciparum; set-up: method as in PMID 27467575; conditions: MMV Malaria Box; cited from earlier work
[9] = tested on: multiresistant strain Dd2 of Plasmodium falciparum; set-up: method as in PMID 27467575; conditions: MMV Malaria Box; cited from earlier work
[10] = K1, strain resistant to chloroquine and pyrimethamine, average of four determinations, read-out: P.f. K1 IC50
[11] = Plasmodium falciparum, NF54, chloroquine-sensitive strain

Papp at 5 h, 200 µM [1]	IC50 [2, 10]	IC50 at 72 h [3]	IC50 [4, 11]	melting point	Structure (SMILES)	further results
6.08 ×10⁻⁶ cm/s	19000 nM	147 µM	30200 nM		CCOc1ccc(-c2nonc2NC(=O)CCN2CCOCC2)cc1OCC [Compound 35, N-(4-(3,4-Diethoxyphenyl)-1,2,5-oxadiazol-3-yl)-3-(morpholin-4-yl)propanamide]	
		14.2 µM			CCOc1ccc(-c2nonc2NC(=O)c2ccccc2C(F)(F)F)cc1OCC [Compound 12, N-(4-(3,4-Diethoxyphenyl)-1,2,5-oxadiazol-3-yl)-2-(trifluoromethyl)benzamide]	
		14.9 µM	343 to 831 nM		CCOc1ccc(-c2nonc2NC(=O)c2ccccc2C)cc1OCC [Compound 11, N-(4-(3,4-Diethoxyphenyl)-1,2,5-oxadiazol-3-yl)-2-methylbenzamide]	IC50 ([4]; chloroquine-sensitive strain): 343 nM
	586 nM	116 µM	674 to 4050 nM	269 °C (dec.)	CCOc1ccc(-c2nonc2NC(=O)c2ccc(CN3CCOCC3)cc2)cc1OCC [Compound 27, N-(4-(3,4-Diethoxyphenyl)-1,2,5-oxadiazol-3-yl)-4-((morpholin-4-yl)methyl)benzamide]	IC50 ([4]; chloroquine-sensitive strain): 674 nM
6.93 ×10⁻⁶ cm/s	2410 nM	140 µM	56000 nM		CCOc1ccc(-c2nonc2NC(=O)CCN2CCCC2)cc1OCC [Compound 34, N-(4-(3,4-Diethoxyphenyl)-1,2,5-oxadiazol-3-yl)-3-(pyrrolidin-1-yl)propanamide]	
		14 µM	98 nM		CCOc1ccc(-c2nonc2NC(=O)c2cccc(OC(F)(F)F)c2)cc1OCC [Compound 15, N-(4-(3,4-Diethoxyphenyl)-1,2,5-oxadiazol-3-yl)-3-(trifluoromethoxy)benzamide]	
7.26 ×10⁻⁶ cm/s		77.2 µM	192 nM		CCOc1ccc(-c2nonc2NC(=O)c2cccc(CN3CCCC3)c2)cc1OCC [Compound 28, N-(4-(3,4-Diethoxyphenyl)-1,2,5-oxadiazol-3-yl)-3-((pyrrolidin-1-yl)methyl)benzamide]	
3.9 ×10⁻⁶ cm/s		35 µM		232 °C (dec.)	CCOc1ccc(-c2nonc2NC(=O)c2ccc(OC)c(F)c2)cc1OCC [Compound 17, N-(4-(3,4-Diethoxyphenyl)-1,2,5-oxadiazol-3-yl)-3-fluoro-4-methoxybenzamide]	
10.2 to 10.8 ×10⁻⁶ cm/s	19500 nM	266 µM	24200 nM		CCOc1ccc(-c2nonc2NC(=O)CN2CCOCC2)cc1OCC [Compound 32, N-(4-(3,4-Diethoxyphenyl)-1,2,5-oxadiazol-3-yl)-2-(morpholin-4-yl)acetamide]	Pe (effective permeability) [1]: 10.25 10^−6 cm/s
5.65 ×10⁻⁶ cm/s		104 µM	712 nM	199 °C	CCOc1ccc(-c2nonc2NC(=O)c2cccc(CN3CCOCC3)c2)cc1OCC [Compound 29, N-(4-(3,4-Diethoxyphenyl)-1,2,5-oxadiazol-3-yl)-3-((morpholin-4-yl)methyl)benzamide]	
4.26 ×10⁻⁶ cm/s	7 nM	9.97 µM	19 nM	153 °C	CCOc1ccc(-c2nonc2NC(=O)c2cccc(C(F)(F)F)c2)cc1OCC [Compound 13, N-(4-(3,4-Diethoxyphenyl)-1,2,5-oxadiazol-3-yl)-3-(trifluoromethyl)benzamide]	
	6.4 nM	450 µM			C[C@@H]1CC[C@H]2[C@@H](C)C(=O)O[C@@H]3O[C@@]4(C)CC[C@@H]1[C@]32OO4 [ART, artemisinin, reference compound]	
8.13 ×10⁻⁶ cm/s	1870 nM	102 µM		251 °C (dec.)	CCOc1ccc(-c2nonc2NC(=O)c2ccc(CN3CCCC3)cc2)cc1OCC [Compound 26, N-(4-(3,4-Diethoxyphenyl)-1,2,5-oxadiazol-3-yl)-4-((pyrrolidin-1-yl)methyl)benzamide]	
	91 nM	111 µM	76 nM	199 °C	CCOc1ccc(-c2nonc2NC(=O)c2ccccc2)cc1OCC [Compound 10, N-(4-(3,4-Diethoxyphenyl)-1,2,5-oxadiazol-3-yl)benzamide]	
10.2 to 10.8 ×10⁻⁶ cm/s	5020 nM	242 µM	7240 nM		CCOc1ccc(-c2nonc2NC(=O)CN2CCCC2)cc1OCC [Compound 31, N-(4-(3,4-Diethoxyphenyl)-1,2,5-oxadiazol-3-yl)-2-(pyrrolidin-1-yl)acetamide]	Pe (effective permeability) [1]: 10.80 10^−6 cm/s
	108 nM	41.1 µM	49 nM	250 °C	CCOc1ccc(-c2nonc2NC(=O)c2cccc(F)c2)cc1OCC [Compound 14, N-(4-(3,4-Diethoxyphenyl)-1,2,5-oxadiazol-3-yl)-3-fluorobenzamide]	
8.47 ×10⁻⁶ cm/s	39900 nM	66 µM	21500 nM		Cc1cccc(C(=O)Nc2nonc2-c2ccccc2)c1 [Compound 39, 3-Methyl-N-(4-phenyl-1,2,5-oxadiazol-3-yl)benzamide]	
		20 µM	14 to 167 nM	260 °C (dec.)	CCOc1ccc(-c2nonc2NC(=O)c2ccc(OC)c(Cl)c2)cc1OCC [Compound 16, 3-Chloro-N-(4-(3,4-diethoxyphenyl)-1,2,5-oxadiazol-3-yl)-4-methoxybenzamide]	IC50 ([4]; chloroquine-sensitive strain): 14 nM

Structure (SMILES)	Papp at 5 h, 200 µM [1]	IC50 [2, 10]	IC50 at 72 h [3]	IC50 [4, 11]	melting point	further results
COc1cc([C@@H]2c3cc4c(cc3[C@H](O)[C@H]3COC(=O)[C@H]23)OCO4)cc(OC)c1OC [POD, podophyllotoxin, reference compound]			0.012 µM			
CCN(CC)CCCC(C)Nc1ccnc2cc(Cl)ccc12 (stereo not drawn) [CQ, chloroquine, reference compound]			188 µM			IC50 ([2]; K1, read-out: P.f. K1 IC50): 150 nM
CCOc1ccc(-c2nonc2NC(=O)c2cccc(C)c2)cc1OCC [Compound 1, N-(4-(3,4-Diethoxyphenyl)-1,2,5-oxadiazol-3-yl)-3-methylbenzamide]	2.77 ×10⁻⁶ cm/s	11 nM	159 µM	11 nM		activity against liver schizonts [5]: activity against liver schizonts; inhibition of PfATP4 [6]: likely to inhibit; activity against early gametocyte stages [7]: working against early gametocyte stages; antiplasmodial activity against multiresistant strain K1 [8]: shows antiplasmodial activity; antiplasmodial activity against multiresistant strain Dd2 [9]: shows antiplasmodial activity
